SMILES strings stand for the structures. Activity calls are given as the source filed them. No cut-off for these calls is given here. Some results are limits rather than exact numbers.

Chain of Serine/threonine-protein kinase PAK 1 (Q13153 whole entry): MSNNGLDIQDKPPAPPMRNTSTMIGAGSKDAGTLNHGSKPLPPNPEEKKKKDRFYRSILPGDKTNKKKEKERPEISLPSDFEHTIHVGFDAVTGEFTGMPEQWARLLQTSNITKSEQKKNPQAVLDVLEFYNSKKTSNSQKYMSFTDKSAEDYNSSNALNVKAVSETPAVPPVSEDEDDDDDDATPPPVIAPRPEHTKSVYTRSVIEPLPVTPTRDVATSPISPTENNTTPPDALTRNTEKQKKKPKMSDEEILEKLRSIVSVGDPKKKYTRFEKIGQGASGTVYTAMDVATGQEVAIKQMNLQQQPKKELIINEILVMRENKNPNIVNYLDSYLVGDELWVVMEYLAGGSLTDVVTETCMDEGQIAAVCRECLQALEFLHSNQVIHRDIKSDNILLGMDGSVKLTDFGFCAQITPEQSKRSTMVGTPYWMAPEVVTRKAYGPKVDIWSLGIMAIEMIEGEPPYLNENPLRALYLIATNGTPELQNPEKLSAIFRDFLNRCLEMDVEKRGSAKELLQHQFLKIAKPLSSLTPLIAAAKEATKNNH

The first test addresses Serine/threonine-protein kinase PAK 1 (Homo sapiens, UniProt Q13153). Put plainly: Inhibition of PAK1 (unknown origin) […] measured after 40 mins by ADP-glo kinase assay.
For the molecule `O=C(c1ccc(Cl)cc1)N1CCC(Nc2ncnc3[nH]ncc23)CC1`, the midpoint of inhibition, the IC50, lay at 9.44 µM.

Consider `COc1ccc(NC(=O)N2CCC(Nc3ncnc4[nH]ncc34)CC2)cc1`, for which half-maximal inhibition (IC50) required 13.8 µM.

`O=C(Nc1ccc(Br)cc1)N1CCC(Nc2ncnc3[nH]ncc23)CC1`: the IC50 was 17.9 µM. The same measure, in the same setting: next, `O=C(NC1CCN(c2ncnc3[nH]ncc23)CC1)c1ccccc1Cl`: 5.24 µM; `Cc1cccc(C)c1NC(=O)NC1CCN(c2ncnc3[nH]ncc23)CC1`: 2.16 µM. On the same count and under the same terms, next, `Cc1ccc(NC(=O)NC2CCN(c3ncnc4[nH]ncc34)CC2)cc1`: 4.71 µM; `O=C(Nc1ccc(C(F)(F)F)cc1)NC1CCN(c2ncnc3[nH]ncc23)CC1`: 7.15 µM; `O=C(NC1CCN(c2ncnc3[nH]ncc23)CC1)c1cccc(Cl)c1Cl`: 4.17 µM. Still for that read-out and setting: next, `O=C(c1ccc(F)cc1)N1CCC(Nc2ncnc3[nH]ncc23)CC1`: 7.82 µM; `O=C(NC1CCN(c2ncnc3[nH]ncc23)CC1)c1ccc(C(F)(F)F)cc1`: 5.74 µM; `O=C(Nc1cccc(Cl)c1)NC1CCN(c2ncnc3[nH]ncc23)CC1`: 1.24 µM. The molecule `Cc1ccc(NC(=O)N2CCC(Nc3ncnc4[nH]ncc34)CC2)cc1` showed an IC50 of 17.4 µM. On the same count and under the same terms, next, `O=C(Nc1cccc(Cl)c1)N1CCC(Nc2ncnc3[nH]ncc23)CC1`: 7.18 µM; `COc1ccc(C(=O)NC2CCN(c3ncnc4[nH]ncc34)CC2)cc1`: 8.82 µM; `Cc1ccccc1C(=O)N1CCC(Nc2ncnc3[nH]ncc23)CC1`: 33.2 µM. Same read-out and setting: the result for `Cc1cc(C)c(C(=O)N2CCC(Nc3ncnc4[nH]ncc34)CC2)c(C)c1` reads 31.1 µM. The same measure, in the same setting: next, `Cc1cccc(C)c1NC(=S)N1CCC(Nc2ncnc3[nH]ncc23)CC1`: 7.36 µM. Turning to `O=C(Nc1ccccc1Cl)NC1CCN(c2ncnc3[nH]ncc23)CC1`, the IC50 was determined as 0.56 µM. This IC50 lies about 13-fold lower than the previous one. The same measure, in the same setting: next, `O=C(Nc1ccc(Br)cc1)NC1CCN(c2ncnc3[nH]ncc23)CC1`: 4.03 µM.

Regarding `O=C(NC1CCN(c2ncnc3[nH]ncc23)CC1)c1cccc(C(F)(F)F)c1`, the IC50 was found to be 2.51 µM. `O=C(NC1CCN(c2ncnc3[nH]ncc23)CC1)c1ccc(F)cc1` came in with an IC50 of 4.54 µM.

`O=C(NC1CCN(c2ncnc3[nH]ncc23)CC1)c1ccc(Br)cc1`: the IC50 was found to be 16.4 µM.

Take `O=C(Nc1ccc(F)cc1F)N1CCC(Nc2ncnc3[nH]ncc23)CC1`: half-maximal inhibition (IC50) was put at 5.17 µM. Same read-out and setting: next, `S=C(Nc1cccc2ccccc12)N1CCC(Nc2ncnc3[nH]ncc23)CC1`: more than 50 µM. Same read-out and setting: next, `O=C(Nc1ccc(C(F)(F)F)cc1)N1CCC(Nc2ncnc3[nH]ncc23)CC1`: 15.8 µM; `Cc1ccccc1C(=O)NC1CCN(c2ncnc3[nH]ncc23)CC1`: 6.26 µM. The same measure, in the same setting: next, `Cc1cc(C)c(C(=O)NC2CCN(c3ncnc4[nH]ncc34)CC2)c(C)c1`: 6.77 µM.

With `O=C(Nc1cccc2ccccc12)N1CCC(Nc2ncnc3[nH]ncc23)CC1`, the IC50 was more than 50 µM. Take `O=C(c1ccccc1Cl)N1CCC(Nc2ncnc3[nH]ncc23)CC1`: the IC50 is 6.84 µM. On the same count and under the same terms, the result for `S=C(Nc1cccc(Cl)c1)N1CCC(Nc2ncnc3[nH]ncc23)CC1` reads 7.89 µM; that for `O=C(c1cccc(Cl)c1Cl)N1CCC(Nc2ncnc3[nH]ncc23)CC1`, 6.77 µM; that for `O=C(Nc1ccc(F)cc1F)NC1CCN(c2ncnc3[nH]ncc23)CC1`, 1.14 µM. On the same count and under the same terms, next, `O=C(Nc1ccc(Cl)c(Cl)c1)N1CCC(Nc2ncnc3[nH]ncc23)CC1`: 10.8 µM; `COc1ccc(NC(=S)N2CCC(Nc3ncnc4[nH]ncc34)CC2)cc1`: 15.1 µM; `O=C(c1cccc(C(F)(F)F)c1)N1CCC(Nc2ncnc3[nH]ncc23)CC1`: more than 50 µM.

Regarding `O=C(c1ccc(Br)cc1)N1CCC(Nc2ncnc3[nH]ncc23)CC1`, the IC50 was 29.2 µM.

The molecule `O=C(Nc1ccc(Cl)cc1Cl)N1CCC(Nc2ncnc3[nH]ncc23)CC1` displayed an IC50 of 5.46 µM. Same read-out and setting: next, `Cc1ccc(NC(=S)N2CCC(Nc3ncnc4[nH]ncc34)CC2)cc1`: 19.6 µM; `O=C(Nc1cc(C(F)(F)F)cc(C(F)(F)F)c1)N1CCC(Nc2ncnc3[nH]ncc23)CC1`: 9.32 µM. Still for that read-out and setting: the result for `Cc1ccc(C(=O)NC2CCN(c3ncnc4[nH]ncc34)CC2)cc1` reads 5.61 µM; that for `O=C(Nc1ccccc1Cl)N1CCC(Nc2ncnc3[nH]ncc23)CC1`, 5.24 µM. On the same count and under the same terms, the result for `COc1ccc(NC(=O)NC2CCN(c3ncnc4[nH]ncc34)CC2)cc1` reads 6.37 µM; that for `S=C(Nc1ccccc1Cl)N1CCC(Nc2ncnc3[nH]ncc23)CC1`, 6.67 µM; that for `O=C(c1ccc(C(F)(F)F)cc1)N1CCC(Nc2ncnc3[nH]ncc23)CC1`, more than 50 µM. Take `Cc1ccc(C(=O)N2CCC(Nc3ncnc4[nH]ncc34)CC2)cc1`: the IC50 was found to be 39.5 µM. Still for that read-out and setting: next, `O=C(Nc1cccc2ccccc12)NC1CCN(c2ncnc3[nH]ncc23)CC1`: 11.1 µM. Same read-out and setting: next, `Cc1cccc(C)c1NC(=O)N1CCC(Nc2ncnc3[nH]ncc23)CC1`: 6.27 µM; `FC(F)(F)c1cc(NC(=S)N2CCC(Nc3ncnc4[nH]ncc34)CC2)cc(C(F)(F)F)c1`: 8.71 µM; `O=C(Nc1ccc(Cl)c(Cl)c1)NC1CCN(c2ncnc3[nH]ncc23)CC1`: 2.29 µM.

For another test, the system named is MDA-MB-231. Put plainly: Down regulation of PAK1 expression in human MDA-MB-231 cells at 5 uM measured after 24 hrs by immunofluorescence analysis. It counts as functional, cell-based.
In the case of `CCn1c(=O)c(-c2ccc(-c3cncs3)cc2Cl)cc2cnc(Nc3ccc(N4CCN(C)CC4)cc3)nc21`, the outcome was Active.

Source of the values: ChEMBL document CHEMBL4765282, “Design, synthesis and biological evaluation of 1H-pyrazolo [3,4-d]pyrimidine derivatives as PAK1 inhibitors that trigger apoptosis, ER stress and anti-migration effect in MDA-MB-231 cells” (Eur J Med Chem, 2020).
